Patent US20080261895A1 (Wyeth, priority 2006, published 2008)
“And” between values parts separate entries of the source, which are not always exact repeats. Identical values can stand only once.

Key:
[1] = Whole blood and plasma radioactivity and partitioning after single oral [14C]DVS, rats; type: in vivo, Sprague Dawley rats; conditions: single oral 20 mg/kg; for Radioactivity in Plasma, Individual Rats / Radioactivity in Plasma, Mean ± S.D. / Radioactivity in Whole Blood, Individual Rats: listed as [^14C]DVS, 20 mg/kg
From the text: Sprague Dawley rats (12 male and 6 female), weighing between 0.311 and 0.345 kg for males and between 0.263 and 0.311 kg for females at the time of dosing, were used. Animals were given food and water ad libitum. For ease of reporting, the animals were designated numbers 001M through 012M for the male rats and 001F through 006F for the female rats. Three animals from the last time point, for each sex, were housed individually in metabolism cages for the collection of urine and feces. The other animals were housed individually in standard cages.
The oral dosing solution was prepared by combining 86.4 mL of 3.0 mg/mL (2.0 mg/mL, free base) unlabeled DVS solution with 3.6 mL of 4.3 mg/mL (3.0 mg/mL free base) [^14C]DVS solution. Solutions were prepared in 0.25% polysorbate 80, 0.5% methylcellulose in water. The radiochemical purity, specific activity and concentration of [^14C]DVS (bulk drug and dosing solution) were determined using HPLC with radiometric detection. Aliquots of the dosing solution were taken pre-, mid-, and post-dose for the determination of specific activity and radioactivity concentrations of dosing solution.
Whole blood (approximately 5 mL) was collected by cardiac puncture into heparinized tubes at the appropriate time points (1, 4, 8, and 24 hours for male rats, and 1 and 8 hours for female rats, N=3 for each sex at each time point). Triplicate aliquots (200 μL) of whole blood were placed into combusto-cones, weighed and allowed to air dry. These samples were oxidized. The remaining blood was centrifuged at 5000×g and 4° C. for 10 minutes (Model Legend RT centrifuge, Sorvall). The resulting plasma was transferred to fresh tubes and triplicate aliquots (100 μL) were analyzed for radioactivity content. The remaining plasma was stored at −70° C. until metabolite analysis.
Blood samples and fecal homogenates were oxidized in a Model 307 Tri-Carb sample oxidizer, using Carbosorb® E (6 mL) as trapping agent and PermaFluor® E^+ (10 mL) as scintillant. Oxidation efficiency was determined by oxidation of C-Spec-Chec (Perkin Elmer), a standard of known radioactivity, and determined to be 98.7%. The background reading (average of control blood or fecal samples) was subtracted from each sample reading. Aliquots of urine and plasma were analyzed directly following the addition of 10 mL of Ultima Gold™ scintillation fluid.
All radioactivity determinations were made using a Tri-Carb Model 3100TR liquid scintillation counter (Perkin Elmer) with an Ultima Gold™ or toluene standard curve. Counts per minute (CPM) were converted to disintegrations per minute (DPM) by use of external standards of known radioactivity. The quench of each standard was determined by the transformed spectral index of an external radioactive standard (tSIE). The lower limits of detection were defined as twice background.

[2] = Stability of [14C]DVS in control rat plasma; type: in vitro ADME; conditions: 37° C.
Experimental: The stability of [^14C]DVS in rat plasma was determined. [^14C]DVS (0.01 mg/mL, final concentration) was added to control rat plasma and incubated in a shaking water bath set to 37° C. Aliquots (0.5 mL) were removed at 0, 1, 4, 8 and 24 hours. Samples were extracted as described above and radiopurity assayed by HPLC analysis.

[3] = tested on: norepinephrine levels in the brains; test: Norepinephrine levels in the brains of rats; type: in vivo; conditions: 30 mg/kg (free base), administered subcutaneously, male Sprague Dawley rats
[4] = Fecal excretion and metabolite profile by radiochromatography, dogs; type: in vivo, beagle dogs; conditions: single oral 30 mg/kg
Experimental: For each dog, urine and feces were collected separately, with urine collected on dry ice and feces collected at room temperature. Collections were from 0-8 and 8-24 hours for urine and 0-24 hours for feces. Urine and fecal samples were shipped on dry ice to Wyeth Research, Biotransformation Division (Collegeville, Pa.) for analysis. Fecal samples were homogenized in approximately five volumes (v/w) of water. Aliquots of approximately 0.2 grams of the homogenate were placed into combusto-cones, weighed and allowed to air dry. These samples were then oxidized and radioactivity content determined. The remaining urine samples and fecal homogenates were stored at −70° C. until metabolite analysis. Blood samples and fecal homogenates were oxidized in a Model 307 Tri-Carb sample oxidizer, using Carbosorb® E (6 mL) as trapping agent and PermaFluor® E^+ (10 mL) as scintillant. The background reading (average of control blood or fecal samples) was subtracted from each sample reading. Aliquots of urine and plasma were analyzed directly following the addition of 10 mL of Ultima Gold™ scintillation fluid.
Fecal homogenates collected up to 24 hours post-dose were analyzed for metabolite profiles. Aliquots of approximately 2 grams of fecal homogenate were transferred to a fresh tube, an equal volume of acetonitrile (v/w) was added, and the tube vortexed. Samples were then centrifuged at 14000 rpm in an Eppendorf Model 5415C centrifuge for 10 minutes. The supernatant was transferred to a clean tube. The residue was re-suspended with 1 mL acetonitrile and centrifuged as described above. The resulting supernatant was combined with the original supernatant and analyzed for radioactivity. The supernatants were then concentrated under a stream of nitrogen in a Turbo Vap to remove the acetonitrile. An aliquot of the aqueous residue was analyzed by HPLC for profiling. Selected samples were also analyzed by LC/MS to characterize the radioactive peaks.
Chromatographic analyses were performed with a Waters Alliance model 2690 HPLC system (Waters Corp., Milford, Mass.). It was equipped with a built-in autosampler and was in-line with a model 2487 tunable UV detector, set to monitor 225 nm, and a FloOne β Model 515 radioactivity flow detector (Perkin Elmer) with a 250 μL LQTR flow cell. The flow rate of Ultima Flow M scintillation fluid was 3 mL/min, providing a mixing ratio of scintillation cocktail to mobile phase of 3:1. Separation of the metabolite peaks was accomplished on a Phenomenex Luna C18(2) column, 250×4.6 mm, 5 micron (Phenomenex, Torrance, Calif.), using a linear gradient of two mobile phases, A and B. Mobile phase A was 10 mM ammonium acetate, pH 5.5, and mobile phase B was acetonitrile. The flow rate was 1 mL/min.

For CN(C)CC(c1ccc(O)cc1)C1(O)CCCCC1.O=C(O)CCC(=O)O (centres unmarked) [DVS, O-desmethylvenlafaxine succinate], the “Radioactivity in Whole Blood, Mean ± S.D.” value ([1]; 1 hr, female) was 6.18 ± 0.74 μg equivalents/mL, the “Radioactivity in Plasma, Individual Rats” value ([1]; 1 hr, female) was 9.61 μg equivalents/mL and 8.74 μg equivalents/mL and 11.3 μg equivalents/mL and the “Radioactivity in Plasma, Mean ± S.D.” value ([1]; 1 hr, female) was 9.90 μg equivalents/mL and 9.90 ± 1.2 μg equivalents/mL. The “Radioactivity in Whole Blood, Individual Rats” value ([1]; 1 hr, female) was 5.63 μg equivalents/mL and 5.76 μg equivalents/mL and 7.15 μg equivalents/mL, the “Radioactivity in Whole Blood, Mean ± S.D.” value ([1]; 1 hr, male) was 6.87 ± 1.50 μg equivalents/mL and the “Radioactivity in Plasma, Individual Rats” value ([1]; 1 hr, male) was 10.4 μg equivalents/mL and 8.90 μg equivalents/mL and 13.7 μg equivalents/mL. For the same compound, the “Radioactivity in Plasma, Mean ± S.D.” value ([1]; 1 hr, male) was 11.0 μg equivalents/mL and 11.0 ± 2.2 μg equivalents/mL, the “Radioactivity in Whole Blood, Individual Rats” value ([1]; 1 hr, male) was 6.11 μg equivalents/mL and 5.66 μg equivalents/mL and 8.85 μg equivalents/mL and the “Radioactivity in Whole Blood, Mean ± S.D.” value ([1]; 4 hr, male) was 0.88 ± 0.12 μg equivalents/mL. The “Radioactivity in Plasma, Individual Rats” value ([1]; 4 hr, male) was 1.59 μg equivalents/mL and 1.62 μg equivalents/mL and 1.22 μg equivalents/mL, the “Radioactivity in Plasma, Mean ± S.D.” value ([1]; 4 hr, male) was 1.48 μg equivalents/mL and 1.48 ± 0.20 μg equivalents/mL and the “Radioactivity in Whole Blood, Individual Rats” value ([1]; 4 hr, male) was 0.95 μg equivalents/mL and 0.96 μg equivalents/mL and 0.72 μg equivalents/mL. For the same compound, the “Radioactivity in Whole Blood, Mean ± S.D.” value ([1]; 8 hr, female) was 0.58 ± 0.07 μg equivalents/mL, the “Radioactivity in Plasma, Individual Rats” value ([1]; 8 hr, female) was 0.86 μg equivalents/mL and 0.82 μg equivalents/mL and 1.08 μg equivalents/mL and the “Radioactivity in Plasma, Mean ± S.D.” value ([1]; 8 hr, female) was 0.92 μg equivalents/mL and 0.92 ± 0.12 μg equivalents/mL. For the same compound, the “Radioactivity in Whole Blood, Individual Rats” value ([1]; 8 hr, female) was 0.59 μg equivalents/mL and 0.50 μg equivalents/mL and 0.66 μg equivalents/mL, the “Radioactivity in Whole Blood, Mean ± S.D.” value ([1]; 8 hr, male) was 0.59 ± 0.18 μg equivalents/mL and the “Radioactivity in Plasma, Individual Rats” value ([1]; 8 hr, male) was 0.53 μg equivalents/mL and 1.10 μg equivalents/mL and 1.05 μg equivalents/mL. For the same compound, the “Radioactivity in Plasma, Mean ± S.D.” value ([1]; 8 hr, male) was 0.89 μg equivalents/mL and 0.89 ± 0.27 μg equivalents/mL, the “Radioactivity in Whole Blood, Individual Rats” value ([1]; 8 hr, male) was 0.35 μg equivalents/mL and 0.71 μg equivalents/mL (2×) and the “Radioactivity in Whole Blood, Mean ± S.D.” value ([1]; 24 hr, male) was 0.07 ± 0.01 μg equivalents/mL. For the same compound, the “Radioactivity in Plasma, Individual Rats” value ([1]; 24 hr, male) was 0.07 μg equivalents/mL and 0.08 μg equivalents/mL and 0.05 μg equivalents/mL, the “Radioactivity in Plasma, Mean ± S.D.” value ([1]; 24 hr, male) was 0.07 μg equivalents/mL and 0.07 ± 0.01 μg equivalents/mL and the “Radioactivity in Whole Blood, Individual Rats” value ([1]; 24 hr, male) was 0.06 μg equivalents/mL and 0.08 μg equivalents/mL and 0.05 μg equivalents/mL. The “radiopurity of [14C]DVS in rat plasma” value ([2]; all time points up to 24 hours) was “greater than 98.9%”, the “Stability of [14C]DVS in control rat plasma” value ([2]; up to 24 hours) was “stable” and the “norepinephrine levels in the brains” value [3] was “significantly increased”. The “Compounds Detected by Radiochromatography in feces, percent of total peaks, individual dogs” value ([4]; feces 0-24 hours post dose (dog 7 until 48 hours), average of 2 analyses) was 78.6% and 50.6% and 85.7% and 88.8%, the “Radioactivity as % of Dose in feces, individual dogs” value ([4]; feces 0-24 hours post dose (dog 7 until 48 hours), listed as [^14C]DVS) was 4.4% and 0.3% and 4.0% and 3.3% and the “Compounds Detected by Radiochromatography in feces, percent of total peaks, Mean ± S.D.” value ([4]; feces 0-24 hours post dose) was 76% and 75.9 ± 17.4%. For the same compound, the “Radioactivity as % of Dose in feces, Mean ± S.D.” value ([4]; feces 0-24 hours post dose) was “approximately 3%” and the “Radioactivity as % of Dose in feces, Mean ± S.D.” value ([4]; feces 0-24 hours post dose, listed as [^14C]DVS) was 3.0 ± 1.9%.
